# Test results published in patent US20120149080A1, “YEAST PRODUCTION CULTURE FOR THE PRODUCTION OF BUTANOL” (Butamax(TM) Advanced Biofuels LLC, priority 2010, published 2012).
# Where two headings read alike, the source gives them in different places.
# Tests used:
# [1] = test system: Saccharomyces cerevisiae BY4743; test: 24 hour survival (CFU) at low and high cell density; format: cell-based
# Method: Saccharomyces cerevisiae BY4743 (ATCC 201390) was plated from a freezer vial onto YPD agar (Teknova, Hollister, Calif.; Cat. #Y1000) and incubated overnight at 30° C. Cells from the YPD plate were inoculated into a 25 ml pre-culture of YPD broth (Teknova; Cat. #Y5000) with an initial OD600 of 0.06 to 0.08. The pre-culture was grown for 7 hours in an aerobic shaker at 30° C. An aliquot of the pre-culture was inoculated into 200 ml of YPD broth, with an initial OD600 of 0.06 to 0.08, and this culture was incubated with aeration at 30° C. for approximately 17 hours. The optical density of the culture was measured, the culture was centrifuged and the cells were resuspended to yield an OD600 of 5 in fresh YPD broth. This is referred to as a high cell density (HCD) culture. […] This is referred to as a low the cell density (LCD) culture. These cultures were incubated at 30° C. with shaking for 30 minutes for an acclimation period. At the end of the 30 minute acclimation period, the OD600 was measured. 5 ml of low or high cell density culture was dispensed to 15 ml conical tubes which contained different concentrations of the alcohol to be tested. A control tube included no alcohol. The tubes were placed in a rotary drum at 30° C. and incubated for 24 hours. The time of addition of cells was referred to as “time 0”. […] Colony forming units (CFUs) were determined on YPD plates at time 0 for the control and at 24 hours for each of the cultures, including the control culture, using standard microbiological methods. […] Colonies were counted after 48 hours, and CFUs/ml were calculated. At time 0, the low cell density cultures had about 4.8×10^5 CFUs/ml, and the high cell density cultures had about 5.4×10^7 CFUs/ml.
# [2] = test system: Yeast cultures; settings: 1% butanol
# Method: Survival was measured by assaying the number of colony forming units (CFU), which is a measure of live cells.
# [3] = 2.0% (w/v) alcohol, high cell density
# [4] = 2.0% (w/v) alcohol, low cell density
molecule,measurement,setting,value
"CCCCO [1-Butanol, 1-butanol]",Percent Survival HCD (%),"[1]; 1.0% (w/v) alcohol, high cell density OD600 5",72.2%
same,Percent Survival LCD (%),"[1]; 1.0% (w/v) alcohol, low cell density OD600 0.05",1.3%
same,Percent Survival HCD (%),"[1]; 1.5% (w/v) alcohol, high cell density",57.3%
same,Percent Survival LCD (%),"[1]; 1.5% (w/v) alcohol, low cell density",0.4%
same,Percent Survival HCD (%),[1]; [3],3.6%
same,Percent Survival LCD (%),[1]; [4],0.1%
"CCC(C)O (centres unmarked) [2-Butanol, 2-butanol]",Percent Survival HCD (%),[1]; [3],27.6%
same,Percent Survival LCD (%),[1]; [4],0.3%
same,Percent Survival HCD (%),"[1]; 3% (w/v) alcohol, high cell density",18.9%
same,Percent Survival LCD (%),"[1]; 3% (w/v) alcohol, low cell density",0.1%
same,Percent Survival HCD (%),"[1]; 3.5% (w/v) alcohol, high cell density",<0.001%
same,Percent Survival LCD (%),"[1]; 3.5% (w/v) alcohol, low cell density",<0.001%
"CCO [Ethanol, ethanol]",Percent Survival HCD (%),[1]; [3],62.5%
same,Percent Survival LCD (%),[1]; [4],100.0%
same,Percent Survival HCD (%),"[1]; 4% (w/v) alcohol, high cell density",50.2%
same,Percent Survival LCD (%),"[1]; 4% (w/v) alcohol, low cell density",100.0%
same,Percent Survival HCD (%),"[1]; 5% (w/v) alcohol, high cell density",38.9%
same,Percent Survival LCD (%),"[1]; 5% (w/v) alcohol, low cell density",25.3%
butanol,survival rate compared to control culture without butanol,[2]; high cell density cultures,at least 40%
same,survival rate compared to control culture without butanol,[2]; low cell density cultures (100-fold fewer cells),up to 13%
